Measured values published in ChEMBL document CHEMBL1201862, “PubChem BioAssay data set” (2004).
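Five compound concentrations were applied to cells in 96-well plates for 48 hours; endpoints were derived by simple linear interpolation of the resulting dose-response curve. GI50 is the concentration that inhibits growth by half.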 Active and inactive are the calls of the source. Rule as the data show it: active = GI50 up to about 1.1 µM and inactive = higher.

How the values were obtained:
Test in all cases: NCI tumour cell line growth inhibition, 48 h
KM-20L2 = test system: KM-20L2
LXFL 529 = test system: LXFL 529
XF498 = test system: XF498
DMS-273 = test system: DMS-273
SNB-78 = test system: SNB-78
DLD-1 = test system: DLD-1
HOP-18 = test system: HOP-18
RXF 631 = test system: RXF 631
M19-MEL = test system: M19-MEL

Measured: GI50

CC1(C)OB(O)OC1(C)C
inactive: KM-20L2 > 100 µM | LXFL 529 > 100 µM | XF498 > 100 µM | DMS-273 > 100 µM | SNB-78 > 100 µM | DLD-1 > 100 µM | HOP-18 > 100 µM

O=C(O)/C(Cl)=C(\Cl)C(=O)NC1C2CC3CC(C2)CC1C3 (centres undefined)
inactive: KM-20L2 > 100 µM | RXF 631 61 µM | LXFL 529 > 100 µM | XF498 > 100 µM | M19-MEL > 100 µM | DMS-273 > 100 µM | SNB-78 > 100 µM | DLD-1 > 100 µM | HOP-18 > 100 µM

C/C(=C\CC/C=C(\C)CC/C=C(\C)CCC1SC1(C)C)CC/C=C(\C)CCC1OC1(C)C (centres undefined)
inactive: KM-20L2 > 100 µM | LXFL 529 > 100 µM | XF498 > 100 µM | M19-MEL 71.4 µM | DMS-273 > 100 µM | DLD-1 > 100 µM | HOP-18 > 100 µM

CCOC(=O)CN1C(=O)c2cc([N+](=O)[O-])cc3cc([N+](=O)[O-])cc(c23)C1=O
inactive: KM-20L2 50.8 µM | RXF 631 50.7 µM | LXFL 529 12.3 µM | XF498 > 100 µM | M19-MEL 30.1 µM | DMS-273 > 100 µM | SNB-78 4.2 µM | DLD-1 5.86 µM | HOP-18 > 100 µM

CNC(=S)NC1CCCCC1NC(=S)NC (centres undefined)
inactive: KM-20L2 > 100 µM | RXF 631 > 100 µM | LXFL 529 > 100 µM | XF498 > 100 µM | M19-MEL > 100 µM | DMS-273 > 100 µM | SNB-78 > 100 µM | DLD-1 > 100 µM | HOP-18 > 100 µM

O=C(N/C(=C\c1cccc([N+](=O)[O-])c1)c1nc2ccccc2[nH]1)c1ccccc1
inactive: KM-20L2 43.8 µM | LXFL 529 26.1 µM | XF498 27.7 µM | M19-MEL 62.8 µM | DMS-273 69.2 µM | SNB-78 44.6 µM | DLD-1 55.5 µM

C1CCNCC1.S=C(S)N1CCCCC1
inactive: KM-20L2 100 µM | RXF 631 4.43 µM | SNB-78 100 µM | HOP-18 100 µM
active: M19-MEL 0.685 µM

COc1c(Br)cc(Br)c(OC)c1-c1ccc[nH]1
inactive: LXFL 529 > 100 µM | M19-MEL 91 µM | DMS-273 87.9 µM | SNB-78 > 100 µM | DLD-1 62.5 µM

CC12CC3C(CC1SCC(=O)O2)C3(C)C (centres undefined)
inactive: LXFL 529 > 100 µM | XF498 > 100 µM | M19-MEL > 100 µM | DMS-273 > 100 µM | SNB-78 > 100 µM | DLD-1 > 100 µM | HOP-18 > 100 µM

CC(C)C(/C=C/c1ccc(Br)cc1)=N\NC(N)=O
inactive: KM-20L2 > 100 µM | LXFL 529 56.4 µM | XF498 > 100 µM | M19-MEL 12.2 µM | DMS-273 > 100 µM | SNB-78 > 100 µM | DLD-1 > 100 µM

COC(=O)c1nc(-c2ccc(Cl)c(Cl)c2)nc2ccc(Cl)cc12
inactive: KM-20L2 21 µM | LXFL 529 > 100 µM | M19-MEL > 100 µM | DMS-273 81.1 µM | SNB-78 6.59 µM | DLD-1 > 100 µM

CC(=O)OC12c3ccccc3C1CCCCCC21OCCCO1 (centres undefined)
inactive: KM-20L2 > 100 µM | LXFL 529 > 100 µM | M19-MEL > 100 µM | DMS-273 > 100 µM | SNB-78 > 100 µM | DLD-1 > 100 µM

CCc1ccc(/C(C)=N/NC(N)=S)cc1
inactive: KM-20L2 > 100 µM | M19-MEL > 100 µM | SNB-78 > 100 µM | HOP-18 > 100 µM
active: XF498 0.569 µM

CCCC(=O)OCC(O)CO (centres undefined)
inactive: LXFL 529 > 5000 µM | M19-MEL > 5000 µM | DMS-273 4040 µM | SNB-78 > 5000 µM | DLD-1 > 5000 µM | HOP-18 1730 µM

Cc1cc(C)nc(NS(=O)(=O)c2ccc(NC(=O)c3cccc4c(Nc5ccc(S(=O)(=O)N=C(N)N)cc5)c5ccccc5nc34)cc2)n1
inactive: KM-20L2 34.2 µM | RXF 631 27.3 µM | LXFL 529 3.88 µM | XF498 > 100 µM | M19-MEL 22.1 µM | DMS-273 19.7 µM | SNB-78 8.3 µM | DLD-1 7.62 µM | HOP-18 > 100 µM

CC(=O)Nc1ccc(-c2nnc(SCC(=O)Nc3ccc([N+](=O)[O-])cc3)o2)cc1
inactive: KM-20L2 14.4 µM | LXFL 529 7.93 µM | M19-MEL 13.5 µM | DMS-273 10.6 µM | SNB-78 16.1 µM | DLD-1 11.9 µM | HOP-18 16.4 µM

CCOc1ccc(C2=NN(CC)C(=O)C(C3C(=O)N(c4ccccc4)N=C3C)C2)cc1 (centres undefined)
inactive: KM-20L2 > 100 µM | LXFL 529 > 100 µM | XF498 > 100 µM | M19-MEL > 100 µM | DMS-273 > 100 µM | SNB-78 > 100 µM | DLD-1 > 100 µM | HOP-18 > 100 µM

CC(C)(C)NC(=O)NC12CC3CC(CC(F)(C3)C1)C2
inactive: KM-20L2 > 100 µM | RXF 631 > 100 µM | LXFL 529 > 100 µM | XF498 > 100 µM | M19-MEL > 100 µM | DMS-273 > 100 µM | SNB-78 > 100 µM | DLD-1 > 100 µM

CN(C)CC1CCC/C1=N\O (centres undefined)
inactive: KM-20L2 > 100 µM | LXFL 529 > 100 µM | M19-MEL > 100 µM | DMS-273 > 100 µM | SNB-78 > 100 µM | DLD-1 > 100 µM | HOP-18 > 100 µM

CC(CC(=O)N1C(=O)C(C)(C)[C@@H](O)[C@H]1CC(C)C(Cl)(Cl)Cl)C(Cl)(Cl)Cl (some centres undefined)
inactive: KM-20L2 > 100 µM | LXFL 529 > 100 µM | XF498 > 100 µM | M19-MEL > 100 µM | DMS-273 > 100 µM | SNB-78 > 100 µM | DLD-1 > 100 µM | HOP-18 > 100 µM

COC(=O)C1=C(c2cc(OC)c(OC)c(OC)c2)OC(c2ccc3c(c2)OCO3)C1 (centres undefined)
inactive: KM-20L2 19.7 µM | LXFL 529 25.3 µM | M19-MEL 21.1 µM | DMS-273 25.4 µM | SNB-78 87.3 µM | DLD-1 23 µM | HOP-18 > 100 µM

O=C(CCc1n[nH]c(=S)o1)Nc1cc(Cl)ccc1Cl
inactive: KM-20L2 48.2 µM | LXFL 529 76.4 µM | M19-MEL > 100 µM | DMS-273 19.1 µM | SNB-78 > 100 µM | DLD-1 79.3 µM | HOP-18 > 100 µM

C[Si](C)(C)/C=C\CCO
inactive: KM-20L2 > 100 µM | RXF 631 > 100 µM | LXFL 529 > 100 µM | XF498 > 100 µM | M19-MEL > 100 µM | DMS-273 > 100 µM | SNB-78 > 100 µM | DLD-1 > 100 µM | HOP-18 > 100 µM

c1ccc(C2(c3ccccc3)SSC3(S2)C2CC4CC(C2)CC3C4)cc1 (centres undefined)
inactive: KM-20L2 > 100 µM | LXFL 529 > 100 µM | SNB-78 > 100 µM | DLD-1 > 100 µM

CCc1cccc(C)c1N1C(=O)C(=O)C(c2nc3ccccc3o2)/C(=N/NC(=S)NN)C1=O (centres undefined)
inactive: KM-20L2 > 100 µM | RXF 631 > 100 µM | LXFL 529 > 100 µM | XF498 > 100 µM | M19-MEL > 100 µM | DMS-273 > 100 µM | SNB-78 > 100 µM | DLD-1 > 100 µM

COc1ccc2c(c1[N+](=O)[O-])CC[C@@H]1[C@@H]2CC[C@]2(C)C(=O)CC[C@@H]12
inactive: KM-20L2 > 25 µM | XF498 20.4 µM | M19-MEL > 25 µM | DMS-273 > 25 µM | SNB-78 24.7 µM | DLD-1 > 25 µM | HOP-18 > 25 µM
